Legend:
A2780 = assay: Antiproliferative MTT assay; type: cell-based, human; conditions: 30 μM pure natural product, 72 h
Method: (§1) For the determination of the antiproliferative properties of the prepared extract and selected alkaloids (isopteropodine, mitraphylline, and uncarine D), an MTT assay was applied on our […] cell panel (see Table S4). […] All were maintained in a minimal essential medium completed with 10% fetal bovine serum, 1% non-essential amino acids, and 1% penicillin–streptomycin at 37 °C in a humidified atmosphere containing 5% CO2. All cell lines were purchased from the European Collection of Cell Cultures (Salisbury, UK), except for SiHa and C33A, which were from the American Tissue Culture Collection, LGC Standards GmbH (Wesel, Germany). Cell culture media and supplements were obtained from Lonza Group Ltd. (Basel, Switzerland). Cells were seeded into 96-well plates (C33A 10,000/well, all others 5000/well); after overnight incubation, the test substances were added and incubated for another 72 h under cell-culturing conditions. Uncaria tomentosa extract and the alkaloids were tested in the 1–90 μg/mL and 1–30 μM ranges, respectively. Finally, 20 μL of 5 mg/mL MTT solution was added to each well and incubated for 4 h; the medium was discarded, and the precipitated formazan crystals were dissolved in DMSO for 60 min with shaking. The absorbance was determined using a microplate reader (SPECTROstar Nano, BMG Labtech GmbH). Two independent experiments were performed with five parallels for each condition. Cisplatin, a clinically used anticancer agent (Ebewe GmbH, Unterach, Austria), was included as a reference compound. Calculations were conducted using the GraphPad Prism 10.0 software (GraphPad Software Inc., San Diego, CA, USA).
(§2) Table S4 – Antiproliferative properties of Uncaria tomentosa extract, three natural products (isopteropodine, mitraphylline, and uncarine D) and the
(§3) reference agent cisplatin.
(§4) Cell line Uncaria tomentosa isopteropodine mitraphylline uncarine D [95% confidence
(§5) 1: The highest applied concentration was 90 μg/mL and 30 μM for the extract and the pure natural products, respectively.
(§6) 2: Inhibitions less than 20% compared to the untreated control were regarded as negligible and were not given numerically.

C33A = assay: Antiproliferative MTT assay; type: cell-based, human; conditions: 30 μM pure natural product, 72 h
Method: as §1, §2, §3, §4, §5, §6

HEK293-Mock-B = assay: Antiproliferative MTT assay; type: cell-based, human; conditions: 30 μM pure natural product, 72 h
Method: as §1, §2, §3, §4, §5, §6

HEK293-Mock = assay: Antiproliferative MTT assay; type: cell-based, human; conditions: 30 μM pure natural product, 72 h
Method: as §1, §2, §3, §4, §5, §6

HeLa = assay: Antiproliferative MTT assay; type: cell-based, human; conditions: 30 μM pure natural product, 72 h
Method: as §1, §2, §3, §4, §5, §6

MCF7 = assay: Antiproliferative MTT assay; type: cell-based, human; conditions: 30 μM pure natural product, 72 h
Method: as §1, §2, §3, §4, §5, §6

MDA-MB-231 = assay: Antiproliferative MTT assay; type: cell-based, human; conditions: 30 μM pure natural product, 72 h
Method: as §1, §2, §3, §4, §5, §6

SiHa = assay: Antiproliferative MTT assay; type: cell-based, human; conditions: 30 μM pure natural product, 72 h
Method: as §1, §2, §3, §4, §5, §6

T47D = assay: Antiproliferative MTT assay; type: cell-based, human; conditions: 30 μM pure natural product, 72 h
Method: as §1, §2, §3, §4, §5, §6

[1] = test system: pregnane X receptor (PXR); conditions: cited from earlier work

Structure (SMILES) | Cell growth inhibition at the highest concentration (% ± SEM) (A2780) | Cell growth inhibition at the highest concentration (% ± SEM) (C33A) | Cell growth inhibition at the highest concentration (% ± SEM) (HEK293-Mock-B) | Cell growth inhibition at the highest concentration (% ± SEM) (HEK293-Mock) | Cell growth inhibition at the highest concentration (% ± SEM) (HeLa) | Cell growth inhibition at the highest concentration (% ± SEM) (MCF7) | Cell growth inhibition at the highest concentration (% ± SEM) (MDA-MB-231) | Cell growth inhibition at the highest concentration (% ± SEM) (SiHa) | Cell growth inhibition at the highest concentration (% ± SEM) (T47D) | PXR activation [1]
COC(=O)C1=CO[C@@H](C)[C@H]2CN3CC[C@]4(C(=O)Nc5ccccc54)[C@@H]3C[C@H]12 [mitraphylline] | < 20% | < 20% | < 20% | < 20% | < 20% | < 20% | < 20% | 26.22 ± 1.12% | < 20% | PXR activators
COC(=O)C1=CO[C@@H](C)[C@@H]2CN3CC[C@@]4(C(=O)Nc5ccccc54)[C@@H]3C[C@H]12 [isopteropodine] | < 20% | < 20% | < 20% | < 20% | < 20% | < 20% | < 20% | 27.38 ± 2.72% | < 20% | PXR activators

— article PMC11597817, “Modulation of Multispecific Transporters by Uncaria tomentosa Extract and Its Major Phytoconstituents” (Pharmaceutics, 2024)
